We go through 16 compounds from patent US11597727B2 (THE REGENTS OF THE UNIVERSITY OF CALIFORNIA, priority 2018, dated 2023).

Chain of integrin α2β1 (P17301 30-1181): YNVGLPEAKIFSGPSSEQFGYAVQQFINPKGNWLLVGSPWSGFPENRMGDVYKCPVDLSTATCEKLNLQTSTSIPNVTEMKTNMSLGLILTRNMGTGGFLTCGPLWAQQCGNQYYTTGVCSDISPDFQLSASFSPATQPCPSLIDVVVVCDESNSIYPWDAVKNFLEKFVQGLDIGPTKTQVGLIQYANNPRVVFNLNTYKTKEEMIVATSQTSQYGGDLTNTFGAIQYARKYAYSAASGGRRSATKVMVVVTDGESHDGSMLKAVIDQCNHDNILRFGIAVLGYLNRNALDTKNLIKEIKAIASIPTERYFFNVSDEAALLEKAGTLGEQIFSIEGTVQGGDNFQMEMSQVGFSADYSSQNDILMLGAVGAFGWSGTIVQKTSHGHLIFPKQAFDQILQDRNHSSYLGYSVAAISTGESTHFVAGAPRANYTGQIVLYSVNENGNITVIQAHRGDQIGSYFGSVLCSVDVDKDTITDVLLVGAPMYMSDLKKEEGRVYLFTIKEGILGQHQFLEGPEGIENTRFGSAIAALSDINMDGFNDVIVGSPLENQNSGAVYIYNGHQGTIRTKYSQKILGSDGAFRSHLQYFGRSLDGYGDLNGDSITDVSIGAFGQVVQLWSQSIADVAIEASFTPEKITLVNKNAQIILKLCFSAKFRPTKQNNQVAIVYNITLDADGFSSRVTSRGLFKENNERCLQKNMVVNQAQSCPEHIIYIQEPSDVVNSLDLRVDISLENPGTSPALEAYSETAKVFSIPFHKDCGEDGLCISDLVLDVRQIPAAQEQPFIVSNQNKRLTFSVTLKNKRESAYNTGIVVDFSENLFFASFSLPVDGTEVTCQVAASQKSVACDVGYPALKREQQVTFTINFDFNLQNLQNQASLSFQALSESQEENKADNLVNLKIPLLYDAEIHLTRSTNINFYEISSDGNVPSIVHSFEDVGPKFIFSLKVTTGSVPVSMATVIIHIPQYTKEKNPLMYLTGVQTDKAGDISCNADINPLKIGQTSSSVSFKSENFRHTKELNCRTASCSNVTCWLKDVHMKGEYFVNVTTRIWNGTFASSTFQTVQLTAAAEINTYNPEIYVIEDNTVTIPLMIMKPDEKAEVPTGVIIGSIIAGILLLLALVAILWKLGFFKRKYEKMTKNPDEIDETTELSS
Chain of integrin α2β1 (P05556 21-798): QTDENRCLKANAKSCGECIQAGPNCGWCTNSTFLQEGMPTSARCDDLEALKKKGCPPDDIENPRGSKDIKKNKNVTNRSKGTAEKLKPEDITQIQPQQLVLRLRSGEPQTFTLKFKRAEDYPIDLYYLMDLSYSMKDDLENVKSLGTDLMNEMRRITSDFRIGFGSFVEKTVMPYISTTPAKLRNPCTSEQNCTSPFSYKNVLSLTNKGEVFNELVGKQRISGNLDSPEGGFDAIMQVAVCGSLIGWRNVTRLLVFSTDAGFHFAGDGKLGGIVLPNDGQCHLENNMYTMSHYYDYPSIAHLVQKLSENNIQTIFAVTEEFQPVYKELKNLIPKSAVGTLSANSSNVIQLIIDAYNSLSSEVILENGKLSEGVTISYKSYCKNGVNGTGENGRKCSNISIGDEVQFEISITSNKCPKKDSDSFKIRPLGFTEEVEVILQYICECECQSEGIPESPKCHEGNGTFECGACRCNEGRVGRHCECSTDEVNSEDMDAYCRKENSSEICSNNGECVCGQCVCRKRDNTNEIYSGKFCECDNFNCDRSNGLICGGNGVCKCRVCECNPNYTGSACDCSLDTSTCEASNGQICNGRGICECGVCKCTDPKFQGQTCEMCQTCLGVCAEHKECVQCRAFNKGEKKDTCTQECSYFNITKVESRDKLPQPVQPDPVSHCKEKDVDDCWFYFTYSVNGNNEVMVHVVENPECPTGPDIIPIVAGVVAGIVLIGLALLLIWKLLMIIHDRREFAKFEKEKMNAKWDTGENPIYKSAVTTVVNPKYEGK

This test concerns the target integrin α2β1 (Homo sapiens, UniProt P05556+P17301). Description: HT 1080 cell adhesion assay on rat tail collagen I. It is filed as cell-based. Also noted: HT1080 (human fibrosarcoma) cells (or human airway smooth muscle cells) were detached and resuspended in serum-free DMEM; endogenous in cells; host or cells: HT1080 human fibrosarcoma cells. The settings on record: HT1080 (human fibrosarcoma) cells on rat tail collagen I, absorbance at 595 nm, triplicate; read-out: IC50s from HT 1080 Cell adhesion assay. The protocol: Cell adhesion Assay: Ninety-six-well flat-bottomed tissue culture plates were coated with rat tail collagen I for 1 hour at 37° C. After incubation, wells were blocked with 1% BSA at 37° C. for 1 hour. Control wells were filled with 1% BSA. HT1080 (human fibrosarcoma) cells (or human airway smooth muscle cells) were detached and resuspended in serum-free DMEM. Cells were incubated with anti-integrin alpha2 antibody control or 10-fold dilutions of each compound with a starting concentration of 10 uM for 15 minutes at 4° C. before plating. The plates were centrifuged at 10 g for 5 minutes before incubation for 1 hour at 37° C. in humidified 5% CO2. Nonadherent cells were removed by centrifugation (top side down) at 10 g for 5 minutes. Attached cells were stained with 0.5% crystal violet, and the wells were washed with PBS. The relative number of cells in each well was evaluated after solubilization in 40 μl of 2% Triton X-100 by measuring absorbance at 595 nm in a microplate reader. All determinations were carried out in triplicate.
In the case of `O=C(NC[C@H](NC(=O)c1c(Cl)cccc1Cl)C(=O)O)NC12CC3CC(C1)CC(C(F)(F)F)(C3)C2` [A2-131, (S)-2-(2,6-dichlorobenzamido)-3-(3-(3-(trifluoromethyl)adamantan-1-yl)ureido)propanoic acid], the IC50 fell in the range of 10 to 100 µM.
The value for `O=C(NC[C@H](NC(=O)c1c(Cl)cccc1Cl)C(=O)O)NCC12CC3CC(CC(C3)C1)C2` [A2-83] was 10 to 100 µM; that for `CCC(CC)C(=O)N[C@@H](CNC(=O)NCc1ccccc1)C(=O)O` [A2-38, (S)-3-(3-benzylureido)-2-(2-ethylbutanamido)propanoic acid] was above 100 µM; that for `CCC12CC3CC(C1)CC(NC(=O)NC[C@H](NC(=O)c1c(Cl)cccc1Cl)C(=O)O)(C3)C2` [A2-129, (S)-2-(2,6-dichlorobenzamido)-3-(3-(3-ethyladamantan-1-yl)ureido)propanoic acid] was 10 to 100 µM.
As for `CCCNC(=O)NC[C@H](NC(=O)c1c(Cl)cccc1Cl)C(=O)O` [KZ-1-27, (S)-2-(2,6-dichlorobenzamido)-3-(3-propylureido)propanoic acid], the IC50 is above 100 µM.
The figure for `O=C(NCc1ccc(Cl)cc1)NC[C@H](NC(=O)c1c(Cl)cccc1Cl)C(=O)O` [KZ-1-26, (S)-3-(3-(4-chlorobenzyl)ureido)-2-(2,6-dichlorobenzamido)propanoic acid] is above 100 µM.
As to `O=C(NCc1ccsc1)NC[C@H](NC(=O)c1c(Cl)cccc1Cl)C(=O)O` [KZ-1-38, (S)-2-(2,6-dichlorobenzamido)-3-(3-(thiophen-3-ylmethyl)ureido)propanoic acid], the IC50 fell in the range of 10 to 100 µM.
For the compound `C[C@H](NC(=O)NC[C@H](NC(=O)c1c(Cl)cccc1Cl)C(=O)O)c1ccccc1` [KZ-1-13, (S)-2-(2,6-dichlorobenzamido)-3-(3-((S)-1-phenylethyl)ureido)propanoic acid], the IC50 was above 100 µM.
Take `O=C(NCc1cccs1)NC[C@H](NC(=O)c1c(Cl)cccc1Cl)C(=O)O` [KZ-1-34, (S)-2-(2,6-dichlorobenzamido)-3-(3-(thiophen-2-ylmethyl)ureido)propanoic acid]: the IC50 is 10 to 100 µM.
The figure for `O=C(NCc1c(F)cccc1F)NC[C@H](NC(=O)c1c(Cl)cccc1Cl)C(=O)O` [KZ-1-33, (S)-2-(2,6-dichlorobenzamido)-3-(3-(2,6-difluorobenzyl)ureido)propanoic acid] is above 100 µM; for `Cc1cccc(Cl)c1C(=O)N[C@@H](CNC(=O)NCc1ccccc1)C(=O)O` [A2-35, (S)-3-(3-benzylureido)-2-(2-chloro-6-methylbenzamido)propanoic acid] it is 10 to 100 µM.
The figure for `O=C(NCc1ccc(C(F)(F)F)cc1)NC[C@H](NC(=O)c1c(Cl)cccc1Cl)C(=O)O` [KZ-1-30, (S)-2-(2,6-dichlorobenzamido)-3-(3-(4-(trifluoromethyl)benzyl)ureido)propanoic acid] is above 100 µM.
Regarding `CC(NC(=O)NC[C@H](NC(=O)c1c(Cl)cccc1Cl)C(=O)O)C12CC3CC(CC(O)(C3)C1)C2` (stereo partly drawn) [A2-152, (2S)-2-(2,6-dichlorobenzamido)-3-(3-(1-(3-hydroxyadamantan-1-yl)ethyl)ureido)propanoic acid], the IC50 is 10 to 100 µM.
The value for `O=C(NCc1ccccc1)NC[C@H](NC(=O)c1c(C(F)(F)F)cccc1C(F)(F)F)C(=O)O` [A2-27, (S)-3-(3-benzylureido)-2-(2,6-bis(trifluoromethyl)benzamido)propanoic acid] was 10 to 100 µM; that for `CN(C)C(=O)NC[C@H](NC(=O)c1c(Cl)cccc1Cl)C(=O)O` [A2-70, (S)-2-(2,6-dichlorobenzamido)-3-(3,3-dimethylureido)propanoic acid] was above 100 µM.
The figure for `O=C(NCc1ccc(Br)cc1)NC[C@H](NC(=O)c1c(Cl)cccc1Cl)C(=O)O` [KZ-1-23, (S)-3-(3-(4-bromobenzyl)ureido)-2-(2,6-dichlorobenzamido)propanoic acid] is 10 to 100 µM.
